In patent US10307413B2, “Tetrahydro- and dihydro-isoquinoline PRMT5 inhibitors and uses thereof” (Epizyme, Inc., priority 2013, dated 2019):
Read-outs that look alike come from different tables or passages of the source.

How the values were obtained:
Z-138 cell line = experiment: Z-138 Proliferation Assay (Cell Titer Glo, 5 days); assay type: cell-based; conditions: Homo sapiens, 120 h, Z-138 cells, 5 days, read-out: Proliferation EC50
How it was run: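 Z-138 cells exposed 5 days at 37 °C, 5% CO2 to nine-point 3-fold dilutions (final top 20 μM, 0.2% DMSO), in triplicate. Viability read as ATP by CellTiter-Glo luminescence; IC50 from 4-parameter fit of normalized dose-response curves.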

[1] = tested on: symmetric di-methyl arginine in Z-138 cells; experiment: Z-138 Methylation Assay (In Cell Western for symmetric di-methyl arginine and DNA content); assay type: cell-based; conditions: Homo sapiens, read-out: ICW EC50
How it was run: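 Z-138 cells (50,000 cells/mL) treated with compound 96 h at 37 °C, then fixed and stained for symmetric di-methyl arginine (800 nm) with DRAQ5 DNA counterstain (700 nm) on Licor Odyssey.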

PRMT5/MEP50 = PRMT5/MEP50 (Homo sapiens (Human), UniProt O14744); experiment: PRMT5 Biochemical Assay (PRMT5/MEP50 enzyme assay on peptide substrate, 3H-SAM Flashplate)
Source text: S-adenosylmethionine (SAM), S-adenosylhomocysteine (SAH), bicine, KCl, Tween20, dimethylsulfoxide (DMSO), bovine skin gelatin (BSG), and Tris(2-carboxyethyl)phosphine hydrochloride solution (TCEP) were purchased from Sigma-Aldrich at the highest level of purity possible. ^3H-SAM was purchase from American Radiolabeled Chemicals with a specific activity of 80 Ci/mmol. 384-well streptavidin Flashplates were purchased from PerkinElmer.
Peptide representative of human histone H4 residues 1-15 was synthesized with a C-terminal linker-affinity tag motif and a C-terminal amide cap by 21st Century Biochemicals.
The amplified genes were sublconed into pENTR/D/TEV (Life Technologies) and subsequently transferred by Gateway™ attL×attR recombination to pDEST8 baculovirus expression vector (Life Technologies).
Protein over-expression was accomplished by infecting exponentially growing Spodoptera frugiperda (SF9) cell culture at 1.2×10^6 cell/ml with a 5000 fold dilution of BIIC stock. Infections were carried out at 27° C. for 72 hours, harvested by centrifugation, and stored at −80° C. for purification.
Flag-PRMT5/6His-MeP50 was eluted with 300 mM Imidazole in the same buffer.
General Procedure for PRMT5/MEP50 Enzyme Assays on Peptide Substrates.
The assays were all performed in a buffer consisting of 20 mM Bicine (pH=7.6), 1 mM TCEP, 0.005% BSG, and 0.002% Tween20, prepared on the day of use. […] DMSO (1 ul) was added to Columns 11, 12, 23, 24, rows A-H for the maximum signal control and 1 ul of SAH, a known product and inhibitor of PRMT5/MEP50, was added to columns 11, 12, 23, 24, rows I-P for the minimum signal control. A cocktail (40 ul) containing the PRMT5/MEP50 enzyme and the peptide was added by Multidrop Combi (Thermo-Fisher). The compounds were allowed to incubate with PRMT5/MEP50 for 30 min at 25 degrees Celsius, then a cocktail (10 ul) containing ^3H-SAM was added to initiate the reaction (final volume=51 ul). […] The assays were stopped by the addition of non-radioactive SAM (10 ul) to a final concentration of 600 uM, which dilutes the ^3H-SAM to a level where its incorporation into the peptide substrate is no longer detectable. 50 ul of the reaction in the 384-well polypropylene plate was then transferred to a 384-well Flashplate and the biotinylated peptides were allowed to bind to the streptavidin surface for at least 1 hour before being washed three times with 0.1% Tween20 in a Biotek ELx405 plate washer. The plates were then read in a PerkinElmer TopCount plate reader to measure the quantity of ^3H-labeled peptide bound to the Flashplate surface, measured as disintegrations per minute (dpm) or alternatively, referred to as counts per minute (cpm).
[formula] [formula] Where dpm=disintegrations per minute, cmpd=signal in assay well, and min and max are the respective minimum and maximum signal controls.
[formula] [formula] Where top and bottom are the normally allowed to float, but may be fixed at 100 or 0 respectively in a 3-parameter fit. The Hill Coefficient normally allowed to float but may also be fixed at 1 in a 3-parameter fit. Y is the % inhibition and X is the compound concentration.

Chain of PRMT5/MEP50 (O14744 other isoform, or with tags, fused parts or gaps): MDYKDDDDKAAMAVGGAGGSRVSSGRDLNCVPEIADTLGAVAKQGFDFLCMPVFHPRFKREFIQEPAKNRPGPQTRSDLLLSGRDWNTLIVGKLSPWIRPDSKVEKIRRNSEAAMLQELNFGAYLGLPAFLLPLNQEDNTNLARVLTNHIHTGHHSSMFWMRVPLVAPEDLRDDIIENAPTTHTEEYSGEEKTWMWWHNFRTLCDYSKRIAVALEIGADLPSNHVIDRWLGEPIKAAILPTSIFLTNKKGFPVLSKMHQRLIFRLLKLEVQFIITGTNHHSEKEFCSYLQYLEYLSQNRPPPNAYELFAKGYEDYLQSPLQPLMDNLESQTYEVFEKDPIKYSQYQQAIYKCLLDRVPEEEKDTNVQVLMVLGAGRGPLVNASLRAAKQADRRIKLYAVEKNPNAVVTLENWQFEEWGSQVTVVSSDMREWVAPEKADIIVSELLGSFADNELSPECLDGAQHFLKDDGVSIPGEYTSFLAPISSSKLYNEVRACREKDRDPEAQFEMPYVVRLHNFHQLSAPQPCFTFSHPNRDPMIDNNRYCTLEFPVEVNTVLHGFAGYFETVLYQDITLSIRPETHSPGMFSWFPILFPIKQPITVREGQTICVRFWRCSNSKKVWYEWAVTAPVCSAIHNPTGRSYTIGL
Chain of PRMT5/MEP50 (Q9BQA1 other isoform, or with tags, fused parts or gaps partner): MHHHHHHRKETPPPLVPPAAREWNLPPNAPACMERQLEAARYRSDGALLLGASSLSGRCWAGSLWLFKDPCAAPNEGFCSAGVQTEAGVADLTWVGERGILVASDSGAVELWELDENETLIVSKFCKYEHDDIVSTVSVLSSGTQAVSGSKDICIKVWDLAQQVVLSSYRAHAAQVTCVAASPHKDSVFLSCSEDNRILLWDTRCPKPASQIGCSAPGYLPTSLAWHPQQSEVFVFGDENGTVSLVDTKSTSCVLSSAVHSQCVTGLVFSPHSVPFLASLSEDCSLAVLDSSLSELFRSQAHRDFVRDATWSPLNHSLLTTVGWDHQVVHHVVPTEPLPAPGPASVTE

IC50 (PRMT5/MEP50) [µM] | EC50 ([1]; In Cell Western methylation) [µM] | IC50 (PRMT5/MEP50; PRMT5 biochemical assay) [µM] | SMILES | EC50 (Z-138 cell line; Cell Titer Glo) [µM] | further results
< 0.1 | – | – | CC(=O)N1CCC(Oc2cncc(C(=O)NC[C@H](O)CN3CCc4ccccc4C3)c2)CC1 [Compound 304] | – | EC50 (Z-138 cell line): 1 to 10 µM; EC50 [1]: < 0.1 µM
– | < 0.1 | < 0.1 | CC(=O)N1CC(Nc2cncc(C(=O)NC[C@H](O)CN3CCc4ccccc4C3)c2)C1 [Compound 444] | 0.101 to 1 | –
– | 0.101 to 1 | < 0.1 | O=C(NC[C@H](O)CN1CCc2ccccc2C1)c1cc(NC2CNC2)nc(N2CCC2)n1 [Compound 502] | 1 to 10 | –
< 0.1 | – | – | O=C(NC[C@H](O)CN1CCc2ccccc2C1)c1ccc(OCCN2CCC2)cc1 [Compound 388] | – | EC50 (Z-138 cell line): 1 to 10 µM; EC50 [1]: < 0.1 µM
– | < 0.1 | < 0.1 | CCCN(C)c1nc(NC2COC2)cc(C(=O)NC[C@H](O)CN2CCc3ccccc3C2)n1 [Compound 459] | < 0.1 | –
– | < 0.1 | < 0.1 | O=C(NC[C@H](O)CN1CCc2ccccc2C1)c1ccnc(NC2CN(C(=O)C3CC3)C2)c1 [Compound 490] | < 0.1 | –
– | < 0.1 | < 0.1 | O=C(NC[C@H](O)CN1CCc2ccccc2C1)c1cccc(NC2COC2)n1 [Compound 436] | 1 to 10 | –
– | < 0.1 | < 0.1 | O=C(NC[C@H](O)CN1CCc2ccccc2C1)c1cc(NC2COC2)nc(C2CC2)n1 [Compound 480] | 0.101 to 1 | –
– | < 0.1 | < 0.1 | CC(=O)N1CCC(Nc2cc(C(=O)NC[C@H](O)CN3CCc4ccc(C)cc4C3)ncn2)CC1 [Compound 668] | 1 to 10 | –
– | < 0.1 | < 0.1 | CC(C)C(=O)N1CCC(Nc2cc(C(=O)NC[C@H](O)CN3CCc4ccccc4C3)ccn2)CC1 [Compound 469] | < 0.1 | –
– | > 1 | 0.101 to 1 | CCS(=O)(=O)CCNCC1CN2C=NC(C(=O)NC[C@H](O)CN3CCc4ccccc4C3)=CC2=N1 (some centres unmarked) [Compound 617] | > 5 | –
– | < 0.1 | < 0.1 | CO[C@H]1CC[C@@H](N(C)c2cc(C(=O)NC[C@H](O)CN3CCc4ccccc4C3)ncn2)CC1 [Compound 618] | 1 to 10 | –
– | 0.101 to 1 | < 0.1 | CN[C@H]1CC[C@@H](Nc2cc(C(=O)NC[C@H](O)CN3CCc4ccccc4C3)ncn2)CC1 [Compound 630] | > 5 | –
– | < 0.1 | < 0.1 | CC(C)(C)C(=O)N1CC(Nc2cc(C(=O)NC[C@H](O)CN3CCc4ccccc4C3)ccn2)C1 [Compound 505] | 0.101 to 1 | –
< 0.1 | – | – | Cc1ncc(NC2CCNC2)cc1C(=O)NC[C@H](O)CN1CCc2ccccc2C1 (some centres unmarked) [Compound 310] | – | EC50 (Z-138 cell line): 0.101 to 1 µM; EC50 [1]: < 0.1 µM
– | 0.101 to 1 | < 0.1 | CC(C)Oc1nc(NC2CNC2)cc(C(=O)NC[C@H](O)CN2CCc3ccccc3C2)n1 [Compound 467] | 0.101 to 1 | –
< 0.1 | – | – | Cc1cnc(NC2CNC2)cc1C(=O)NC[C@H](O)CN1CCc2ccccc2C1 [Compound 341] | – | EC50 (Z-138 cell line): > 20 µM; EC50 [1]: > 1 µM
– | 0.101 to 1 | 1 to 10 | CC(=O)N1CCC(Nc2cc(C(=O)NC[C@H](O)CN3Cc4ccccc4CC3C)ccn2)CC1 (some centres unmarked) [Compound 696] | – | –
– | – | < 0.1 | CN(C)C(=O)CN1CC(Nc2cc(C(=O)NC[C@H](O)CN3CCc4ccccc4C3)ncn2)C1 [Compound 623] | 10 to 50 | –
0.101 to 1 | – | – | CC(Nc1cccc(C(=O)NCC(O)CN2CCc3ccccc3C2)c1)C1CCOCC1 (centres unmarked) [Compound 52, N-(3-(3,4-dihydroisoquinolin-2(1H)-yl)-2-hydroxypropyl)-3-((1-(tetrahydro-2H-pyran-4-yl)ethyl)amino)benzamide] | – | –
1 to 10 | – | – | COc1c(NC2COC2)ncnc1C(=O)NC[C@H](O)CN1CCc2ccccc2C1 [Compound 338] | – | –

IC50 (PRMT5/MEP50) [µM] | EC50 ([1]; In Cell Western methylation) [µM] | IC50 (PRMT5/MEP50; PRMT5 biochemical assay) [µM] | SMILES | EC50 (Z-138 cell line; Cell Titer Glo) [µM] | further results
0.101 to 1 | – | – | COc1cc(NC2CCOCC2)cc(C(=O)NCC(O)CN2CCc3ccccc3C2)c1 (centres unmarked) [Compound 56] | – | –
– | – | < 0.1 | CCC(=O)N1CCC(Nc2cc(C(=O)NC[C@H](O)CN3CCc4ccccc4C3)ccn2)CC1 [Compound 454] | < 0.1 | –
1 to 10 | – | – | O=C(NCC(O)CN1CCc2ccccc2C1)c1cccc(C(=O)N2CCOCC2)c1 (centres unmarked) [Compound 46, N-(3-(3,4-dihydroisoquinolin-2(1H)-yl)-2-hydroxypropyl)-3-(morpholine-4-carbonyl)benzamide] | – | –
0.101 to 1 | – | – | O=C(NCC(O)CN1CCc2ccccc2C1)c1cccc(CN2CCOCC2)c1 (centres unmarked) [Compound 51, N-(3-(3,4-dihydroisoquinolin-2(1H)-yl)-2-hydroxypropyl)-3-(morpholinomethyl)benzamide] | – | –
0.101 to 1 | – | – | O=C(NCC(O)CN1CCc2ccccc2C1)c1cc(NC2CCOCC2)ccc1F (centres unmarked) [Compound 57, N-(3-(3,4-dihydroisoquinolin-2(1H)-yl)-2-hydroxypropyl)-2-fluoro-5-((tetrahydro-2H-pyran-4-yl)amino)benzamide] | – | –
– | – | < 0.1 | O=C(NC[C@H](O)CN1CCc2ccccc2C1)c1ccnc(NC2CCN(C(=O)C3CCC3)CC2)c1 [Compound 455] | < 0.1 | –
0.101 to 1 | – | – | CC1(C)CC(Nc2cccc(C(=O)NCC(O)CN3CCc4ccccc4C3)c2)CCO1 (centres unmarked) [Compound 53, N-(3-(3,4-dihydroisoquinolin-2(1H)-yl)-2-hydroxypropyl)-3-((2,2-dimethyltetrahydro-2H-pyran-4-yl)amino)benzamide] | – | –
0.101 to 1 | – | – | O=C(NCC(O)CN1CCc2ccccc2C1)c1cccc(NC2COC2)c1 (centres unmarked) [Compound 50, N-(3-(3,4-dihydroisoquinolin-2(1H)-yl)-2-hydroxypropyl)-3-(oxetan-3-ylamino)benzamide] | – | –
1 to 10 | – | – | NS(=O)(=O)c1ccccc1C(=O)NCC(O)CN1CCc2ccccc2C1 (centres unmarked) [Compound 33] | – | –
– | – | 0.101 to 1 | NC1=NC(C(=O)NC[C@H](O)CN2CCc3ccccc3C2)=CC2=NC(CO)CN12 (some centres unmarked) [Compound 625] | > 5 | –
– | – | 0.101 to 1 | CC(=O)N1CCC(Nc2cc(C(=O)NCC(N)CN3CCc4ccccc4C3)ncn2)CC1 (centres unmarked) [Compound 701] | – | –
0.101 to 1 | – | – | CN(c1cccc(C(=O)NCC(O)CN2CCc3ccccc3C2)c1)C1CCOCC1 (centres unmarked) [Compound 49, N-(3-(3,4-dihydroisoquinolin-2(1H)-yl)-2-hydroxypropyl)-3-(methyl(tetrahydro-2H-pyran-4-yl)amino)benzamide] | – | –
– | > 1 | 1 to 10 | CC(NC(=O)c1cc(NC2COC2)ncn1)[C@H](O)CN1CCc2ccccc2C1 (some centres unmarked) [Compound 493] | – | –
1 to 10 | – | – | CS(=O)(=O)Nc1ccccc1C(=O)NCC(O)CN1CCc2ccccc2C1 (centres unmarked) [Compound 27] | – | –
– | > 1 | > 10 | CC(=O)N1CCC(Nc2cc(C(=O)NC[C@H](O)CN3Cc4ccccc4C(C)C3)ccn2)CC1 (some centres unmarked) [Compound 695] | – | –
– | > 1 | > 10 | CC(=O)N1CCC(Nc2cc(C(=O)NC[C@H](O)CN3Cc4ccccc4C(O)C3)ccn2)CC1 (some centres unmarked) [Compound 680] | – | –
0.101 to 1 | – | – | O=C(NCC(O)CN1CCc2ccccc2C1)c1cccc(OC2CCOCC2)c1 (centres unmarked) [Compound 48] | – | EC50 [1]: 0.101 to 1 µM
0.101 to 1 | – | – | CCN(c1cccc(C(=O)NCC(O)CN2CCc3ccccc3C2)c1)C1CCOCC1 (centres unmarked) [Compound 47] | – | EC50 [1]: 0.101 to 1 µM
– | – | 0.101 to 1 | CC(=O)N1CC(Nc2cc(C(=O)NCC(N)CN3CCc4ccccc4C3)ncn2)C1 (centres unmarked) [Compound 699] | – | –
– | > 1 | 1 to 10 | O=C(NCC(F)CN1CCc2ccccc2C1)c1cc(NC2COC2)ncn1 (centres unmarked) [Compound 697] | – | –
